Experimental data from patent US6326023A, “Synergistic anti-malarial formulation” (priority 2000, dated 2001).

Key:
[1] = test system: P. yoelli nigeriensis (MDR II); assay: Blood schizonticidal activity of oral arteether formulation prepared in DMSO-distilled water in infected Swiss mice; type: in vivo, P. yoelli nigeriensis (MDR II) in Swiss mice; conditions: for Bioavailability by oral route: suspension in DMSO/distilled water
Experimental: Swiss mice 25±1 gm infected intraperitoneally with 1×10^7 parasitized rbcs were administered α/β formulation, prepared in DMSO (3-4 drop) and then suspended in distilled water by oral administration at various doses ranging between 40-100 mg/kg for 5 consecutive days.
Parasitaemia was recorded periodically from tail blood smears upto 28 days of observation. Both 60 and 80 mg/kg×5 doses were able to eliminate the prasitaemia upto 28 days of observation and were curative. […] A very high dose is required for curative action against MDR of infection and its bioavailability by oral route as suspension in D.W. is low.

P. yoelii nigeriensis = conditions: intramuscular; chloroquine, mefloquine and quinine resistant strain; cited from earlier work
[2] = test system: P. yoelli nigeriensis (MDR II); assay: Blood schizontocidal action of arteether α/β formulation by rectal route in infected Swiss mice; type: in vivo, P. yoelli nigeriensis (MDR II) in Swiss mice
Experimental: α,β-Arteether mixture dissolved in neutralized ground-nut oil was administered to P. yoelli nigeriewis (MDR II) infected mice at 10 mg/kg to 20 mg/kg dose from day 0 to day 2 (for 3 consecutive days) by intra-rectal route. Drug was administered with 0.05-0.25 ml oil (vehicle) in single dose or in 2 divided dose daily. Parasitaemia was recorded daily from tail blood smears stained with Giemsa stain and results are given as % parasitaemia (means±SD). […] Presumptive arteether rectal formulation or suppository administration can save mortality in severe/complicated cases. α/β Arteether rectal route controls the severity of infection and prevents mortality in severe complicated comatose malaria cases and will be specially useful in infants, children and those having frequent vomiting and can not be given oral formulation initially. […] Rectal route α/β arteether formulation remains 1st line of emergency treatment of comatose P. falciparum cases in areas of MDR.

P. knowlesi/P. fragile = conditions: intramuscular, rhesus monkey; cited from earlier work
[3] = test system: P. yoelii nigeriensis (MDR II); assay: Blood schizonticidal activity of α/β arteether formulation in neutralized oil by oral route in infected Swiss mice; type: in vivo, P. yoelii nigeriensis (MDR II) in Swiss mice
Experimental: Efficacy of oral administration of arteether formulation for control of blood induced multi-drug resistant P. yoebi nigerensis (MDR II) in Swiss mice (25±g) was evaluated. The mice was infected intraperitoneafly with 1×10^5 parasitized RBC, and drug treatment 10,15,20 and 30 mg/kg was given once daily for five consecutive days (starting from day 0 to day 4). Blood smears made from tail blood and stained with giemsa were examined periodically till 28 days of infection to record parasitaemia levels and number of surviving/cured mice till 28 days.

CCOC1O[C@@H]2O[C@@]3(C)CC[C@H]4[C@H](C)CC[C@@H]([C@H]1C)[C@@]24OO3 (stereo partly drawn) [α/β arteether]
minimal effective dose ([1]; Plasmodium yoelii, po, read-out: Curative dose / dose needed for total clearance): 60 mg/kg
Parasitaemia ([1]; oral, DMSO-distilled water, 40 mg/kg × 5, Day 4): Nil
Parasitaemia ([1]; oral, DMSO-distilled water, 40 mg/kg × 5, Day 7): Nil
Parasitaemia ([1]; oral, DMSO-distilled water, 40 mg/kg × 5, Day 10): 3.86%
Parasitaemia ([1]; oral, DMSO-distilled water, 40 mg/kg × 5, Day 14): 3.5 ± 8.5%
Parasitaemia ([1]; oral, DMSO-distilled water, 40 mg/kg × 5, Day 21): Nil
Parasitaemia ([1]; oral, DMSO-distilled water, 40 mg/kg × 5, Day 28): Nil
Suppression of parasitaemia ([1]; oral, DMSO-distilled water, 40 mg/kg × 5, MDR strain): transient suppression of parasitaemia, but was not curative
Parasitaemia ([1]; oral, DMSO-distilled water, 60 mg/kg × 5, Day 4): Nil
Parasitaemia ([1]; oral, DMSO-distilled water, 60 mg/kg × 5, Day 7): Nil
Parasitaemia ([1]; oral, DMSO-distilled water, 60 mg/kg × 5, Day 10): Nil
Parasitaemia ([1]; oral, DMSO-distilled water, 60 mg/kg × 5, Day 14): Nil
Parasitaemia ([1]; oral, DMSO-distilled water, 60 mg/kg × 5, Day 21): Nil
Parasitaemia ([1]; oral, DMSO-distilled water, 60 mg/kg × 5, Day 28): Nil
Parasitaemia ([1]; oral, DMSO-distilled water, 80 mg/kg × 5, Day 4): Nil
Parasitaemia ([1]; oral, DMSO-distilled water, 80 mg/kg × 5, Day 7): Nil
Parasitaemia ([1]; oral, DMSO-distilled water, 80 mg/kg × 5, Day 10): Nil
Parasitaemia ([1]; oral, DMSO-distilled water, 80 mg/kg × 5, Day 14): Nil
Parasitaemia ([1]; oral, DMSO-distilled water, 80 mg/kg × 5, Day 21): Nil
Parasitaemia ([1]; oral, DMSO-distilled water, 80 mg/kg × 5, Day 28): Nil
Parasitaemia ([1]; oral, DMSO-distilled water, 100 mg/kg × 5, Day 4): Nil
Parasitaemia ([1]; oral, DMSO-distilled water, 100 mg/kg × 5, Day 7): Nil
Parasitaemia ([1]; oral, DMSO-distilled water, 100 mg/kg × 5, Day 10): Nil
Parasitaemia ([1]; oral, DMSO-distilled water, 100 mg/kg × 5, Day 14): Nil
Parasitaemia ([1]; oral, DMSO-distilled water, 100 mg/kg × 5, Day 21): Nil
Parasitaemia ([1]; oral, DMSO-distilled water, 100 mg/kg × 5, Day 28): Nil
Curative action (elimination of parasitaemia) ([1]; oral, DMSO-distilled water, 60 and 80 mg/kg × 5, upto 28 days): curative
Bioavailability by oral route [1]: low
Bioavailability by oral route ([1]; listed as arteether α/β): of lower order
Antimalarial activity (P. yoelii nigeriensis): shows antimalarial activity
Drug absorption by rectal route ([2]; neutralized ground-nut oil, rectal): fairly rapid
Parasitaemia (mean ± SD) ([2]; rectal, 10 mg/kg × 3 days in 2 divided doses at 6 hrs, Day 4): 0.0%
Parasitaemia (mean ± SD) ([2]; rectal, 10 mg/kg × 3 days in 2 divided doses at 6 hrs, Day 5): 0.0%
Parasitaemia (mean ± SD) ([2]; rectal, 10 mg/kg × 3 days in 2 divided doses at 6 hrs, Day 11): 10.25 ± 10.0%
Parasitaemia (mean ± SD) ([2]; rectal, 10 mg/kg × 3 days in 2 divided doses at 6 hrs, Day 28): 0.0%
Number of animals (in parenthesis) ([2]; rectal, 10 mg/kg × 3 days in 2 divided doses, Day 11, 8 at Day 5): 4
Number of animals (in parenthesis) ([2]; rectal, 10 mg/kg × 3 days in 2 divided doses, Day 28, 8 at Day 5): 1
Parasitaemia (mean ± SD) ([2]; rectal, 10 mg/kg × 3 days, Day 4): 0.0002 ± 0.001%
Number of animals negative (-ve) ([2]; rectal, 10 mg/kg × 3 days, Day 4, of 8): 6
Parasitaemia (mean ± SD) ([2]; rectal, 10 mg/kg × 3 days, Day 5): 0.002 ± 0.080%
Number of animals negative (-ve) ([2]; rectal, 10 mg/kg × 3 days, Day 5, of 8): 6
Parasitaemia (mean ± SD) ([2]; rectal, 10 mg/kg × 3 days, Day 11): 0.0%
Number of animals (in parenthesis) ([2]; rectal, 10 mg/kg × 3 days, Day 11, 8 at Day 5): 3
Parasitaemia (mean ± SD) ([2]; rectal, 10 mg/kg × 3 days, Day 28): 0.0%
Number of animals (in parenthesis) ([2]; rectal, 10 mg/kg × 3 days, Day 28, 8 at Day 5): 3
Parasitaemia (mean ± SD) ([2]; rectal, 15 mg/kg × 3 days in 2 divided doses at 6 hrs, Day 4): 0.0%
Parasitaemia (mean ± SD) ([2]; rectal, 15 mg/kg × 3 days in 2 divided doses at 6 hrs, Day 5): 0.0%
Parasitaemia (mean ± SD) ([2]; rectal, 15 mg/kg × 3 days in 2 divided doses at 6 hrs, Day 11): 0.0%
Parasitaemia (mean ± SD) ([2]; rectal, 15 mg/kg × 3 days in 2 divided doses at 6 hrs, Day 28): 0.0%
Number of animals (in parenthesis) ([2]; rectal, 15 mg/kg × 3 days in 2 divided doses, Day 11, 8 at Day 5): 4
Number of animals (in parenthesis) ([2]; rectal, 15 mg/kg × 3 days in 2 divided doses, Day 28, 8 at Day 5): 4
Parasitaemia (mean ± SD) ([2]; rectal, 15 mg/kg × 3 days, Day 4): 0.0%
Parasitaemia (mean ± SD) ([2]; rectal, 15 mg/kg × 3 days, Day 5): 0.0%
Parasitaemia (mean ± SD) ([2]; rectal, 15 mg/kg × 3 days, Day 11): 0.0%
Number of animals (in parenthesis) ([2]; rectal, 15 mg/kg × 3 days, Day 11, 8 at Day 5): 4
Parasitaemia (mean ± SD) ([2]; rectal, 15 mg/kg × 3 days, Day 28): 0.0%
Number of animals (in parenthesis) ([2]; rectal, 15 mg/kg × 3 days, Day 28, 8 at Day 5): 4
Parasitaemia (mean ± SD) ([2]; rectal, 20 mg/kg × 3 days in 2 divided doses at 6 hrs, Day 4): 0.0%
Parasitaemia (mean ± SD) ([2]; rectal, 20 mg/kg × 3 days in 2 divided doses at 6 hrs, Day 5): 0.0%
Parasitaemia (mean ± SD) ([2]; rectal, 20 mg/kg × 3 days in 2 divided doses at 6 hrs, Day 11): 0.0%
Parasitaemia (mean ± SD) ([2]; rectal, 20 mg/kg × 3 days in 2 divided doses at 6 hrs, Day 28): 0.0%
Number of animals (in parenthesis) ([2]; rectal, 20 mg/kg × 3 days in 2 divided doses, Day 11, 8 at Day 5): 6
Number of animals (in parenthesis) ([2]; rectal, 20 mg/kg × 3 days in 2 divided doses, Day 28, 8 at Day 5): 6
Parasitaemia (mean ± SD) ([2]; rectal, 20 mg/kg × 3 days, Day 4): 0.0%
Parasitaemia (mean ± SD) ([2]; rectal, 20 mg/kg × 3 days, Day 5): 0.0%
Parasitaemia (mean ± SD) ([2]; rectal, 20 mg/kg × 3 days, Day 11): 0.0%
Number of animals (in parenthesis) ([2]; rectal, 20 mg/kg × 3 days, Day 11, 8 at Day 5): 5
Parasitaemia (mean ± SD) ([2]; rectal, 20 mg/kg × 3 days, Day 28): 0.0%
Number of animals (in parenthesis) ([2]; rectal, 20 mg/kg × 3 days, Day 28, 8 at Day 5): 5
Suppression of parasitaemia after treatment ([2]; rectal, 10.0, 15.0 and 20.0 mg/kg, upto 5 days): suppressed the parasitaemia
Cure of experimental cerebral malaria (P. knowlesi/P. fragile): cures experimental cerebral malaria infections
Parasitaemia (mean ± SD) ([3]; 10 mg/kg × 5 days, Day 6): 0.9 ± 1.0%
Parasitaemia (mean ± SD) ([3]; 10 mg/kg × 5 days, Day 9): 41 ± 32.8%
Parasitaemia (mean ± SD) ([3]; 10 mg/kg × 5 days, Day 12): 0.0%
Number of mice surviving ([3]; 10 mg/kg × 5 days, Day 12, of 8): 2
Parasitaemia (mean ± SD) ([3]; 10 mg/kg × 5 days, Day 14): 0.0%
Number of mice surviving ([3]; 10 mg/kg × 5 days, Day 14, of 8): 2
Parasitaemia (mean ± SD) ([3]; 10 mg/kg × 5 days, Day 28): 0.0%
Number of mice surviving ([3]; 10 mg/kg × 5 days, Day 28, of 8): 2
Parasitaemia (mean ± SD) ([3]; 15 mg/kg × 5 days, Day 6): 0.0%
Parasitaemia (mean ± SD) ([3]; 15 mg/kg × 5 days, Day 9): 5.12 ± 5.7%
Parasitaemia (mean ± SD) ([3]; 15 mg/kg × 5 days, Day 12): 0.0%
Number of mice surviving ([3]; 15 mg/kg × 5 days, Day 12, of 8): 4
Parasitaemia (mean ± SD) ([3]; 15 mg/kg × 5 days, Day 14): 0.0%
Number of mice surviving ([3]; 15 mg/kg × 5 days, Day 14, of 8): 4
Parasitaemia (mean ± SD) ([3]; 15 mg/kg × 5 days, Day 28): 0.0%
Number of mice surviving ([3]; 15 mg/kg × 5 days, Day 28, of 8): 4
Parasitaemia (mean ± SD) ([3]; 20 mg/kg × 5 days, Day 6): 0.0%
Parasitaemia (mean ± SD) ([3]; 20 mg/kg × 5 days, Day 9): 3.75 ± 10.6%
Parasitaemia (mean ± SD) ([3]; 20 mg/kg × 5 days, Day 12): 18.8 ± 32.5%
Parasitaemia (mean ± SD) ([3]; 20 mg/kg × 5 days, Day 14): 0.0%
Number of mice surviving ([3]; 20 mg/kg × 5 days, Day 14, of 8): 5
Parasitaemia (mean ± SD) ([3]; 20 mg/kg × 5 days, Day 28): 0.0%
Number of mice surviving ([3]; 20 mg/kg × 5 days, Day 28, of 8): 5
Parasitaemia (mean ± SD) ([3]; 30 mg/kg × 5 days, Day 6): 0.0%
Parasitaemia (mean ± SD) ([3]; 30 mg/kg × 5 days, Day 9): 0.0%
Parasitaemia (mean ± SD) ([3]; 30 mg/kg × 5 days, Day 12): 0.0%
Parasitaemia (mean ± SD) ([3]; 30 mg/kg × 5 days, Day 14): 0.0%
Number of mice surviving ([3]; 30 mg/kg × 5 days, Day 14, of 8): 8
Parasitaemia (mean ± SD) ([3]; 30 mg/kg × 5 days, Day 28): 0.0%
Number of mice surviving ([3]; 30 mg/kg × 5 days, Day 28, of 8): 8
